Blank lines part the entries; values can stand above or below the molecule they belong to.
What was measured:
[1] = tested on: patients with hereditary angioedema; conditions: cited from earlier work
[2] = tested on: animal model of ischemic stroke; conditions: cited from earlier work
[3] = tested on: rat model of ischemic stroke; conditions: cited from earlier work
[4] = tested on: model of hemorrhagic stroke; conditions: cited from earlier work
[5] = Intestinal permeability / solubility classification (BCS)
[6] = tested on: angiotensin-II-treated rodents; conditions: cited from earlier work
[7] = Aqueous solubility of anhydrous Crystalline Form I; type: physicochemical; conditions: water (aqueous); anhydrous Crystalline Form I of acetate salt, at 25° C.
[8] = tested on: mouse model of middle cerebral artery occlusion; conditions: cited from earlier work

Molecule: NC(N)=NCCC[C@@H](N)C(=O)N[C@@H](CCCN=C(N)N)C(=O)N1CCC[C@H]1C(=O)N1C[C@H](O)C[C@H]1C(=O)NCC(=O)N[C@@H](Cc1cccs1)C(=O)N[C@@H](CO)C(=O)N1Cc2ccccc2C[C@@H]1C(=O)N1[C@H](C(=O)N[C@@H](CCCN=C(N)N)C(=O)O)C[C@@H]2CCCC[C@@H]21 [icatibant]
treating hereditary angioedema ([1]; human, in vivo): effective

Molecule: ecallantide
brain edema [2]: reduced | infarct volume [2]: reduced | neurological deficits [2]: reduced | edema in patients with hereditary angioedema ([1]; patients): alleviates

BCS class [5]: BCS Class 3 | solubility [5]: high | solubility [7]: ~8300 µg/mL
Molecule: N=C(N)c1ccc(CNC(=O)c2cnn(Cc3ccccc3)c2)cc1 [Compound 1, 1-benzyl-1H-pyrazole-4-carboxylic acid 4-carbamimidoylbenzylamide]
cerebrovascular edema [3]: reduce | infarction volume [3]: reduce | expansion of intracerebral hemorrhage [4]: reduce | retinal vascular permeability [6]: reduce

Molecule: Hoe-140 [reference compound]
retinal vascular permeability [6]: reduce

B1: C1-INH: the major endogenous inhibitor of PK (protein, UniProt P05155 23-500, looked up)
Plasma protease C1 inhibitor: NPNATSSSSQDPESLQDRGEGKVATTVISKMLFVEPILEVSSLPTTNSTTNSATKITANTTDEPTTQPTTEPTTQPTIQPTQPTTQLPTDSPTQPTTGSFCPGPVTLCSDLESHSTEAVLGDALVDFSLKLYHAFSAMKKVETNMAFSPFSIASLLTQVLLGAGENTKTNLESILSYPKDFTCVHQALKGFTTKGVTSVSQIFHSPDLAIRDTFVNASRTLYSSSPRVLSNNSDANLELINTWVAKNTNNKISRLLDSLPSDTRLVLLNAIYLSAKWKTTFDPKKTRMEPFHFKNSVIKVPMMNSKKYPVAHFIDQTLKAKVGQLQLSHNLSLVILVPQNLKHRLEDMEQALSPSVFKAIMEKLEMSKFQPTLLTLPRIKVTTSQDMLSIMEKLEFFDFSYDLNLCGLTEDPDLQVSAMQHQTVLELTETGVEAAAASAISVARTLLVFEVQQPFLFVLWDQQHKFPVFMGRVYDPRA
infarct size [8]: reduced

Reference: US20240182427A1, “SOLID DOSAGE FORMS OF A PLASMA KALLIKREIN INHIBITOR” (Rezolute, Inc., priority 2022, published 2024)
